Measurements published in patent US10981932B2, “Macrocyclic indole derivatives” (Bayer Aktiengesellschaft, priority 2016, dated 2021).
Values joined by “and” are separate entries in the source; they are usually repeats but may differ in a detail not shown here. Equal entries are not always repeated. Structures can show the parent of a compound that is named as a salt. Where two headings read alike, the source gives them in different places.

Columns and labels:
SUDHL10 [1] = assay: Induction of caspase-3/7 activity (Caspase-Glo 3/7), SUDHL10; type: cell-based; details: caspase-3/7 induction, SUDHL10 cells, 3 h treatment, median
Method in brief: (§1)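 Caspase-Glo 3/7 luminescence, 3 h compound exposure, 37 °C, humidified. Minus medium-only blank. EC50 fit: C0=1, plateau = reference max induction.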

SUDHL5 [2] = assay: Induction of cytotoxicity (CellTiter-Glo, 5 h), SUDHL5
MCL-1 = MCL-1 (Homo sapiens, UniProt Q07820); assay: Protein-protein interaction assay MCL-1/Noxa BH3 peptide (MCL-1 assay), TR-FRET; type: binding; details: MBP-MCL-1 / Noxa BH3-derived peptide, median
Sequence of MCL-1 (Q07820 whole entry): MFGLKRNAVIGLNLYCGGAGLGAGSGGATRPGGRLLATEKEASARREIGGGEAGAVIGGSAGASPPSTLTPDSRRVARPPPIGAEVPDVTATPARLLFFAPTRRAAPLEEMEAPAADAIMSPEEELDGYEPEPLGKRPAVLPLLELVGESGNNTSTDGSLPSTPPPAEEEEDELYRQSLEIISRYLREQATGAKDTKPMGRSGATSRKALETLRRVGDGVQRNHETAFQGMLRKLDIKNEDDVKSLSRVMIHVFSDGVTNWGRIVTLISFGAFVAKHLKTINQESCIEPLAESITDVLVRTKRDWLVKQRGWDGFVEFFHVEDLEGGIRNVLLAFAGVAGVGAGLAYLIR
Method in brief: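 Displacement of the biotinylated Noxa BH3 peptide from MBP-tagged human MCL-1 (1 nM) is detected by time-resolved FRET. Compounds are tested in duplicate across eleven concentrations up to 20 μM, incubated 1 h at 22 °C and overnight at 4 °C, and IC50 is fitted with a four-parameter equation.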

SUDHL5 [3] = assay: Induction of caspase-3/7 activity (Caspase-Glo 3/7), SUDHL5; type: cell-based; details: caspase-3/7 induction, SUDHL5 cells, 3 h treatment, median
Method in brief: as §1

SUDHL5 [4] = assay: Anti-proliferative effect (CellTiter-Glo, 72 h), SUDHL5; type: cell-based; details: SUDHL5 cells, antiproliferation, 72 h incubation, median, read-out: Antiproli SUDHL5 [M] (median)
Method in brief: (§2)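 Viable cells quantified with CellTiter-Glo after 72 h at 37 °C; rim wells excluded; day 0 plate as baseline.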

SUDHL10 [5] = assay: Anti-proliferative effect (CellTiter-Glo, 72 h), SUDHL10; type: cell-based; details: SUDHL10 cells, antiproliferation, 72 h incubation, median, read-out: Antiproli SUDHL10 [M] (median)
Method in brief: as §2

OPM2 = assay: Anti-proliferative effect (CellTiter-Glo, 72 h), OPM2; type: cell-based; details: OPM2 cells, median, read-out: IC50 antiproliferation assay OPM2 [M] (median)
Method in brief: as §2

SUDHL10 [6] = assay: Induction of cytotoxicity (CellTiter-Glo, 5 h), SUDHL10
A2780 = assay: Anti-proliferative effect (CellTiter-Glo, 72 h), A2780; type: cell-based; details: A2780 cells, median, read-out: IC50 antiproliferation assay A2780 [M] (median)
Method in brief: as §2

[7] = Homo sapiens, SU-DHL-5, 5 h, read-out: Cytotox SUDHL5 [M] (median), SUDHL5 cells, cytotoxicity induction, CellTiter-Glo, 5 h incubation, median
[8] = Homo sapiens, SU-DHL10, 5 h, read-out: Cytotox SUDHL10 [M] (median), SUDHL10 cells, cytotoxicity induction, CellTiter-Glo, 5 h incubation, median
[9] = read-out: Cytotox SUDHL5 [M] (median), SUDHL5 cells, cytotoxicity induction, CellTiter-Glo, 5 h incubation, median
[10] = read-out: Cytotox SUDHL10 [M] (median), SUDHL10 cells, cytotoxicity induction, CellTiter-Glo, 5 h incubation, median

| SMILES | EC50 (SUDHL10 [1]; Homo sapiens, SU-DHL10, 3 h) | IC50 (SUDHL5 [2]; [7]) | IC50 (MCL-1) | EC50 (SUDHL5 [3]; Homo sapiens, SU-DHL-5, 3 h) | IC50 (SUDHL5 [4]; Homo sapiens, SU-DHL-5, 72 h) | IC50 (SUDHL10 [5]; Homo sapiens, SU-DHL10, 72 h) | IC50 (OPM2; Homo sapiens, OPM-2, 72 h) | IC50 (SUDHL10 [6]; [8]) | IC50 (SUDHL5 [2]; [9]) | IC50 (A2780; Homo sapiens, A2780, 72 h) | EC50 (SUDHL10 [1]) | EC50 (SUDHL5 [3]) | IC50 (A2780) | IC50 (SUDHL5 [4]) | IC50 (SUDHL10 [5]) | IC50 (OPM2) | IC50 (SUDHL10 [6]; [10]) |
| --- | --- | --- | --- | --- | --- | --- | --- | --- | --- | --- | --- | --- | --- | --- | --- | --- | --- |
| Cc1nn(C)c2c1-c1cccc3c(CCCOc4cccc5ccccc45)c(C(=O)O)n(c13)CC=CCN2Cc1ccccc1 (racemic) [Example 001, (rac)-(E/Z)-8-benzyl-9,11-dimethyl-1-[3-(1-naphthyloxy)propyl]-4,7,8,9-tetrahydropyrazolo[4′,3′:4,5][1,6]diazecino[3,2,1-hi]indole-2-carboxylic Acid] | 29.1 µM | 2.61e-05 M | 1.01 µM | > 33 µM | > 3.3e-05 M | 9.57e-06 M | > 3.3e-05 M | > 3.3e-05 M | – | – | – | – | – | – | – | – | – |
| Cc1nn(C)c2c1-c1cccc3c(CCCOc4cccc5ccccc45)c(C(=O)O)n(c13)CCCN(C)C2 (racemic) [Example 1-30, (rac)-7,9,11-trimethyl-1-[3-(naphthalen-1-yloxy)propyl]-4,5,6,7,8,9-hexahydropyrazolo[3′,4′:7,8][1,5]diazecino[9,10,1-hi]indole-2-carboxylic Acid] | 30.1 µM | > 3.3e-05 M | 0.00652 µM | 15.6 µM | 1.04e-05 M | 1.36e-05 M | 2.28e-05 M | > 3.3e-05 M | – | – | – | – | – | – | – | – | – |
| Cn1nc(COc2ccccc2)c2c1COCC=CCn1c(C(=O)O)c(CCCOc3cccc4ccccc34)c3cccc-2c31 (racemic) [Example 1-76, (rac)-(E/Z)-1-methyl-7-[3-(naphthalen-1-yloxy)propyl]-3-(phenoxymethyl)-1,10,13,15-tetrahydropyrazolo[4′,3′:9,10][1,6]oxazacycloundecino[8,7,6-hi]indole-8-carboxylic Acid] | > 33 µM | > 3.3e-05 M | – | > 33 µM | 2.1e-05 M | 1.13e-05 M | > 3.3e-05 M | > 3.3e-05 M | – | – | – | – | – | – | – | – | – |
| CC(C)OCc1nn(C)c2c1-c1cccc3c(CCCOc4cccc5ccccc45)c(C(=O)O)n(c13)CCCN(C)C2 (single isomer, unassigned) [Example 1-71, 7,9-dimethyl-1-[3-(naphthalen-1-yloxy)propyl]-1-[(propan-2-yloxy)methyl]-4,5,6,7,8,9-hexahydropyrazolo[3′,4′:7,8][1,5]diazecino[9,10,1-hi]indole-2-carboxylic Acid] | > 33 µM | – | 0.0283 µM | > 33 µM | – | 2.13e-05 M | 2.57e-05 M | > 3.3e-05 M | 1.98e-05 M and > 3.3e-05 M | 2.55e-05 M | – | – | – | – | – | – | – |
| CC(C)OCc1nn(C)c2c1-c1cccc3c(CCCOc4cccc5ccccc45)c(C(=O)O)n(c13)CCCCN(C)C2 (single isomer, unassigned) [Example 1-75, 1,14-dimethyl-7-[3-(naphthalen-1-yloxy)propyl]-3-[(propan-2-yloxy)methyl]-10,11,12,13,14,15-hexahydro-1H-pyrazolo[3′,4′:8,9][1,6]diazacycloundecino[10,11,1-hi]indole-8-carboxylic Acid] | – | – | 0.00593 µM | – | – | – | – | – | – | – | > 33 µM | 30.5 µM and > 33 µM | 1.39e-05 M | 1.56e-05 M | 1.12e-05 M | 9.37e-06 M | 1.9e-05 M and > 3.3e-05 M |
| CN(C)S(=O)(=O)N1CCN(c2ccc(OCc3nn(C)c4c3-c3cccc5c(CCCOc6cccc7ccccc67)c(C(=O)O)n(c35)CCCCCC4)cc2)CC1 (single isomer, unassigned; enantiomer 2) [Example 1-41, 3-({4-[4-(dimethylsulfamoyl)piperazin-1-yl]phenoxy}methyl)-1-methyl-7-[3-(naphthalen-1-yloxy)propyl]-10,11,12,13,14,15-hexahydro-1H-pyrazolo[4′,3′:4,5]azacycloundecino[3,2,1-hi]indole-8-carboxylic acid-N-ethylethanamine Salt (Enantiomer 2)] | – | – | 0.00106 µM | – | – | – | – | – | 7.69e-07 M | – | 0.897 µM | 0.723 µM | 5.32e-06 M | – | 1.1e-06 M | 2.17e-06 M | 1.52e-06 M |
| Cc1c2c(nn1CCN1CCOCC1)COCCCCn1c(C(=O)O)c(CCCOc3cccc4ccccc34)c3cccc-2c31 (single isomer, unassigned; enantiomer 2) [Example 055, 3-methyl-2-[2-(morpholin-4-yl)ethyl]-7-[3-(naphthalen-1-yloxy)propyl]-2,10,11,12,13,15-hexahydropyrazolo[4′,3′:9,10][1,6]oxazacycloundecino[8,7,6-hi]indole-8-carboxylic acid-N-ethylethanamine Salt (Enantiomer 2)] | – | – | 0.041 µM | – | – | – | – | – | > 3.3e-05 M | – | > 33 µM | > 33 µM | > 3.3e-05 M | – | 1.17e-05 M | > 3.3e-05 M | > 3.3e-05 M |
| COCCn1nc2c(c1CN1CCOCC1)-c1cccc3c(CCCOc4cccc5ccccc45)c(C(=O)O)n(c13)CCCN(C)C2 (single isomer, unassigned; enantiomer 2) [Example 058, 10-(2-methoxyethyl)-7-methyl-11-(morpholin-4-ylmethyl)-1-[3-(naphthalen-1-yloxy)propyl]-4,5,6,7,8,10-hexahydropyrazolo[3′,4′:7,8][1,5]diazecino[9,10,1-hi]indole-2-carboxylic Acid (Enantiomer 2)] | – | – | 0.116 µM | – | – | – | – | – | > 3.3e-05 M | – | > 33 µM | > 33 µM | > 3.3e-05 M | – | 2.05e-05 M | > 3.3e-05 M | > 3.3e-05 M |
| CC(C)c1c2c(nn1C)CN(C)CCCn1c(C(=O)O)c(CCCOc3cccc4ccccc34)c3cccc-2c31 (single isomer, unassigned; enantiomer 2) [Example 115, 7,10-dimethyl-1-[3-(naphthalen-1-yloxy)propyl]-1-(propan-2-yl)-4,5,6,7,8,10-hexahydropyrazolo[3′,4′:7,8][1,5]diazecino[9,10,1-hi]indole-2-carboxylic Acid (Enantiomer 2)] | – | – | 0.0829 µM | – | – | – | – | – | 1.13e-05 M | – | 30.5 µM | > 33 µM | 1.19e-05 M | – | 4.86e-06 M | 1.9e-05 M | 1.49e-05 M |
| COCc1nn(C)c2c1-c1cccc3c(CCCOc4cccc5ccccc45)c(C(=O)O)n(c13)CCCCOC2 (single isomer, unassigned; enantiomer 2) [Example 160, 3-(methoxymethyl)-1-methyl-7-[3-(naphthalen-1-yloxy)propyl]-1,10,11,12,13,15-hexahydropyrazolo[4′,3′:9,10][1,6]oxazacycloundecino[8,7,6-hi]indole-8-carboxylic acid-N-ethylethanamine Salt (Enantiomer 2)] | – | – | 0.0208 µM | – | – | – | – | – | 2.05e-05 M | – | > 33 µM | 17.9 µM | > 3.3e-05 M | – | 1.49e-05 M | > 3.3e-05 M | > 3.3e-05 M |
| CCOCc1nn(C)c2c1-c1cccc3c(CCCOc4cccc5c4CCCC5)c(C(=O)O)n(c13)CCCCOC2 (single isomer, unassigned; enantiomer 2) [Example 172, 3-(ethoxymethyl)-1-methyl-7-[3-(5,6,7,8-tetrahydronaphthalen-1-yloxy)propyl]-1,10,11,12,13,15-hexahydropyrazolo[4′,3′:9,10][1,6]oxazacycloundecino[8,7,6-hi]indole-8-carboxylic Acid (Enantiomer 2)] | – | – | 0.144 µM | – | – | – | – | – | > 3.3e-05 M | – | > 33 µM | > 33 µM | > 3.3e-05 M | – | 1.53e-05 M | > 3.3e-05 M | > 3.3e-05 M |
